This experiment relates to patient-derived pancreatic ductal adenocarcinoma (PDAC) organoids. Kind of experiment: Drug testing of patient-derived PDAC organoids treated with gemcitabine in the microwell platform. Type of experiment: cell-based, human. Particulars: PDAC organoids derived from the same parental cells, imaging (FIG. 6). An excerpt:
FIG. 6: Representative drug evaluation of patient-derived pancreatic ductal adenocarcinoma organoids treated with gemcitabine. Upper panel, organoids sensitive to gemcitabine; lower panel, organoids resistance to gemcitabine. Organoids are a desirable choice for drug screening studies because they retain 3D cellular architecture and therefore recapitulate physiological conditions to a higher degree than traditional cell lines. […] Organoids sensitive to gemcitabine (FIG. 6, top panel) were growth-stunted and/or dissociated compared to resistant organoids (FIG. 6, bottom panel). Whole organoids that display resistance to a drug, can be retrieved and further evaluated, e.g., for genomic changes and/or changes in RNA expression profiles, to evaluate mechanisms of drug resistance, for example, innate versus acquired resistance.

From patent US20260049289A1, “ARRAY PLATFORM FOR HIGH-THROUGHPUT ORGANOID PROFILING” (CZ Biohub SF, LLC, priority 2022, published 2026) come the findings set out here.

As to `Nc1ccn([C@@H]2O[C@H](CO)[C@@H](O)C2(F)F)c(=O)n1` [gemcitabine], the “observed drug response of single organoids (growth, dissociation)” value is on record as “heterogeneity in observed drug response”.
